Experiments:
[1] = molecular target: GDP-bound HRAS wild-type protein (Homo sapiens, UniProt P01112); assay: Binding to HRAS by surface plasmon resonance (SPR), Single Cycle Kinetics; conditions: SPR; KD ratio class
[2] = molecular target: GDP-bound NRAS wild-type protein (Homo sapiens, UniProt P01111); assay: Binding to NRAS by surface plasmon resonance (SPR), Single Cycle Kinetics; conditions: SPR; KD ratio class
[3] = system: human lung cancer strain NCI-H441; assay: cells; conditions: NCI-H441, 96 h, read-out: NCI-H441 IC50 (nM)

Chain of GDP-bound HRAS wild-type protein (P01112 whole entry): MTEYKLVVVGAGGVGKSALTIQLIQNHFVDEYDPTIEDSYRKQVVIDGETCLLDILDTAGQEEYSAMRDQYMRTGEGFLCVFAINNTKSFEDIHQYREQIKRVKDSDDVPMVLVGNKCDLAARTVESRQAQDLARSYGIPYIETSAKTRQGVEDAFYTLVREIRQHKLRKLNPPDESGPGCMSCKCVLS
Chain of GDP-bound NRAS wild-type protein (P01111 whole entry): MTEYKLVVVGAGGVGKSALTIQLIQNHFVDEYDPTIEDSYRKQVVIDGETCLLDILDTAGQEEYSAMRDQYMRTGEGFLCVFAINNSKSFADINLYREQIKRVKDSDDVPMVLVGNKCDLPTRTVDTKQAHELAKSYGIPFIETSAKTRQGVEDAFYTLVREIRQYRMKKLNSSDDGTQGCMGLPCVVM

Row | Compound | HRAS/KRAS (ratio of KD value for GDP-bound HRAS wild-type protein to KD value for KRAS) [1] | NRAS/KRAS (ratio of KD value for GDP-bound NRAS wild-type protein to KD value for KRAS) [2] | IC50 [3] [nM]
1 | CC[C@H](C)[C@@H]1NC(=O)[C@H](CC2CC2)N(C)C(=O)C[C@@H](C(=O)N(C)C)N(C)C(=O)[C@H](C2CCCC2)N(C)C(=O)C2(CCC2)NC(=O)[C@H](CCC(F)F)N(C)C(=O)[C@H](CCc2cc(F)c(C(F)(F)F)c(F)c2)NC(=O)CN(C)C(=O)[C@H](Cc2ccc(C(F)(F)F)cc2)N2CC/C=C\C[C@@H](C2=O)N(C)C(=O)CN(C)C1=O [PP1402] | A (a compound having 10 or more and less than 20 is denoted as A) | A (a compound having 10 or more and less than 20 is denoted as A) | 82
2 | CC[C@H](C)[C@@H]1NC(=O)[C@H](CC2CC2)N(C)C(=O)C[C@@H](C(=O)N(C)CC)N(C)C(=O)[C@H](C2CCCC2)N(C)C(=O)C2(CC(C)(C)C2)NC(=O)[C@@H]2C[C@@H](F)CN2C(=O)[C@H](CCc2cc(F)c(C(F)(F)F)c(F)c2)NC(=O)CN(C)C(=O)[C@H](Cc2ccc(C(F)(F)F)cc2)N2CC/C=C\C[C@@H](C2=O)N(C)C(=O)CN(C)C1=O [PP1570] | A (a compound having 10 or more and less than 20 is denoted as A) | AA (a compound having 20 or more is denoted as AA) | 2.6
3 | CCO[C@@H]1C[C@H]2C(=O)NC3(CC(C)(C)C3)C(=O)N(C)[C@@H](C3CCCC3)C(=O)N(C)[C@H](C(=O)N(CC)CC)CC(=O)N(C)[C@@H](CC)C(=O)N[C@@H]([C@@H](C)CC)C(=O)N(C)CC(=O)N(C)[C@H]3C/C=C\CCN(C3=O)[C@@H](Cc3ccc(C(F)(F)F)cc3)C(=O)N(C)CC(=O)N[C@@H](CCc3cc(F)c(C(F)(F)F)c(F)c3)C(=O)N2C1 [PP1580] | A (a compound having 10 or more and less than 20 is denoted as A) | A (a compound having 10 or more and less than 20 is denoted as A) | 9.7
4 | CCO[C@@H]1C[C@H]2C(=O)NC3(CCC3)C(=O)N(C)[C@@H](C3CCCC3)C(=O)N(C)[C@H](C)CC(=O)N(C)[C@@H](CC3CC3)C(=O)N[C@@H]([C@@H](C)CC)C(=O)N(C)CC(=O)N(C)[C@H]3C/C=C\CCN(C3=O)[C@@H](Cc3ccc(C)cc3)C(=O)N(C)CC(=O)N[C@@H](CCc3cc(F)c(C(F)(F)F)c(F)c3)C(=O)N2C1 [PP1410] | B (a compound having 3 or more and less than 10 is denoted as B) | B (a compound having 3 or more and less than 10 is denoted as B) | 51
5 | CCO[C@@H]1C[C@H]2C(=O)NC3(CCC3)C(=O)N(C)[C@@H](C3CCCC3)C(=O)N(C)[C@H](C(=O)N3CCCCC3)CC(=O)N(C)[C@@H](C)C(=O)N[C@@H]([C@@H](C)CC)C(=O)N(C)CC(=O)N(C)[C@H]3C/C=C\CCN(C3=O)[C@@H](Cc3ccc(C(F)(F)F)cc3)C(=O)N(C)CC(=O)N[C@@H](CCc3cc(F)c(C(F)(F)F)c(F)c3)C(=O)N2C1 [PP1292] | A (a compound having 10 or more and less than 20 is denoted as A) | A (a compound having 10 or more and less than 20 is denoted as A) | 24.6
6 | CCO[C@@H]1C[C@H]2C(=O)NC3(CCC3)C(=O)N(C)[C@@H](C3CCCC3)C(=O)N(C)[C@H](C(=O)N3CCCC3)CC(=O)N(C)[C@@H](CC3CCCC3)C(=O)N[C@@H]([C@@H](C)CC)C(=O)N(C)CC(=O)N(C)[C@H]3C/C=C\CCN(C3=O)[C@@H](Cc3ccc(C)cc3)C(=O)N(C)CC(=O)N[C@@H](CCc3cc(F)c(C(F)(F)F)c(F)c3)C(=O)N2C1 [PP1412] | A (a compound having 10 or more and less than 20 is denoted as A) | A (a compound having 10 or more and less than 20 is denoted as A) | 23
7 | CCO[C@@H]1C[C@H]2C(=O)NC3(CCC3)C(=O)N(C)[C@@H](C3CCCC3)C(=O)N(C)[C@H](C(=O)N3CCOCC3)CC(=O)N(C)[C@@H](CC(F)F)C(=O)N[C@@H]([C@@H](C)CC)C(=O)N(C)CC(=O)N(C)[C@H]3C/C=C\CCN(C3=O)[C@@H](Cc3ccc(C(F)(F)F)cc3)C(=O)N(C)CC(=O)N[C@@H](CCc3cc(F)c(C(F)(F)F)c(F)c3)C(=O)N2C1 [PP1285] | A (a compound having 10 or more and less than 20 is denoted as A) | AA (a compound having 20 or more is denoted as AA) | 24.6
8 | CCO[C@@H]1C[C@H]2C(=O)NC3(CCC3)C(=O)N(C)[C@@H](C(CC)CC)C(=O)N(C)[C@H](C(=O)N(C)C)CC(=O)N(C)[C@@H](CC3CC3)C(=O)N[C@@H]([C@@H](C)CC)C(=O)N(C)CC(=O)N(C)[C@H]3C/C=C\CCN(C3=O)[C@@H](Cc3ccc(C(F)(F)F)cc3)C(=O)N(C)CC(=O)N[C@@H](CCc3cc(F)c(C(F)(F)F)c(F)c3)C(=O)N2C1 [PP1203] | A (a compound having 10 or more and less than 20 is denoted as A) | A (a compound having 10 or more and less than 20 is denoted as A) | 20.8
9 | CCO[C@@H]1C[C@H]2C(=O)NC3(CCC3)C(=O)N(C)[C@@H](C(CC)CC)C(=O)N(C)[C@H](C(=O)N(C)C)CC(=O)N(C)[C@@H](CC3CC3)C(=O)N[C@@H]([C@@H](C)CC)C(=O)N(C)CC(=O)N(C)[C@H]3C/C=C\CCN(C3=O)[C@@H](Cc3ccc(C(F)(F)F)cc3)C(=O)N(C)CC(=O)N[C@@H](CCc3ccc(Cl)c(Cl)c3)C(=O)N2C1 [PP1219] | A (a compound having 10 or more and less than 20 is denoted as A) | AA (a compound having 20 or more is denoted as AA) | 21.4
10 | CCO[C@@H]1C[C@H]2C(=O)NC3(CCC3)C(=O)N(C)[C@@H](C3CCCC3)C(=O)N(C)[C@H](C)CC(=O)N(C)[C@@H](CC(C)C)C(=O)N[C@@H]([C@@H](C)CC)C(=O)N(C)CC(=O)N(C)[C@H]3C/C=C\CCN(C3=O)[C@@H](Cc3ccc(F)cc3)C(=O)N(C)CC(=O)N[C@@H](CCc3cc(F)c(C(F)(F)F)c(F)c3)C(=O)N2C1 [PP1494] | B (a compound having 3 or more and less than 10 is denoted as B) | B (a compound having 3 or more and less than 10 is denoted as B) | 142
11 | CCO[C@@H]1C[C@H]2C(=O)NC3(CCC3)C(=O)N(C)[C@@H](C3CCCC3)C(=O)N(C)[C@H](C(=O)N3CCOCC3)CC(=O)N(C)[C@@H](CC(C)C)C(=O)N[C@@H]([C@@H](C)CC)C(=O)N(C)CC(=O)N(C)[C@H]3C/C=C\CCN(C3=O)[C@@H](Cc3ccc(C(F)(F)F)cc3)C(=O)N(C)CC(=O)N[C@@H](CCc3cc(F)c(C(F)(F)F)c(F)c3)C(=O)N2C1 [PP1282] | A (a compound having 10 or more and less than 20 is denoted as A) | A (a compound having 10 or more and less than 20 is denoted as A) | 12.3
12 | CCO[C@@H]1C[C@H]2C(=O)NC3(CCC3)C(=O)N(C)[C@@H](C3CCCC3)C(=O)N(C)[C@H](C3CCCCC3)CC(=O)N(C)[C@@H](COC)C(=O)N[C@@H]([C@@H](C)CC)C(=O)N(C)CC(=O)N(C)[C@H]3C/C=C\CCN(C3=O)[C@@H](Cc3ccc(C(F)(F)F)cc3)C(=O)N(C)CC(=O)N[C@@H](CCc3cc(F)c(C(F)(F)F)c(F)c3)C(=O)N2C1 [PP1584] | B (a compound having 3 or more and less than 10 is denoted as B) | B (a compound having 3 or more and less than 10 is denoted as B) | 66.4
13 | CCO[C@@H]1C[C@H]2C(=O)NC3(CCC3)C(=O)N(C)[C@@H](C3CCCC3)C(=O)N(C)[C@H](C(=O)N3CCOCC3)CC(=O)N(C)[C@@H](CC)C(=O)N[C@@H]([C@@H](C)CC)C(=O)N(C)CC(=O)N(C)[C@H]3C[C@@H](C)[C@@H](C)CN(C3=O)[C@@H](Cc3ccc(C(F)(F)F)cc3)C(=O)N(C)CC(=O)N[C@@H](CCc3cc(F)c(C(F)(F)F)c(F)c3)C(=O)N2C1 [PP1354] | B (a compound having 3 or more and less than 10 is denoted as B) | A (a compound having 10 or more and less than 20 is denoted as A) | 3.6
14 | CCO[C@@H]1C[C@H]2C(=O)NC3(CCC3)C(=O)N(C)[C@@H](C3CCCC3)C(=O)N(C)[C@H](C)CC(=O)N(C)[C@@H](CC(C)C)C(=O)N[C@@H]([C@@H](C)CC)C(=O)N(C)CC(=O)N(C)[C@H]3C/C=C\CCN(C3=O)[C@@H](Cc3ccc(C)cc3)C(=O)N(C)CC(=O)N[C@@H](CCc3cc(F)c(C(F)(F)F)c(F)c3)C(=O)N2C1 [PP1417] | B (a compound having 3 or more and less than 10 is denoted as B) | B (a compound having 3 or more and less than 10 is denoted as B) | 18.4

Source: US20250230193A1, “CYCLIC COMPOUND HAVING SELECTIVE KRAS INHIBITORY EFFECT ON HRAS AND NRAS” (CHUGAI SEIYAKU KABUSHIKI KAISHA, priority 2022, published 2025)
